Measurements taken from ChEMBL document CHEMBL4334476 (J Med Chem, 2019).

How the values were obtained:
Homo sapiens = species: Homo sapiens; assay: Selectivity ratio of IC50 for human recombinant arginase 2 H331 to I354 deletion mutant expressed in Escherichia coli BL21 (DE3) to IC50 for human recombinant arginase 1 expressed in Escherichia coli BL21 (DE3)
Arginase-1 = biological target: T1, Arginase-1 (Homo sapiens, UniProt P05089); assay: Inhibition of human recombinant arginase 1 expressed in Escherichia coli BL21 (DE3) assessed as reduction in urea production using L-arginine as substrate in presence of MnSO4 incubated for 60 mins by o-phthaldialdehyde/N-(1-naphthyl)ethylene-diamine dihydrochloride reagent based colorimetric assay
T1 sequence (P05089 whole entry): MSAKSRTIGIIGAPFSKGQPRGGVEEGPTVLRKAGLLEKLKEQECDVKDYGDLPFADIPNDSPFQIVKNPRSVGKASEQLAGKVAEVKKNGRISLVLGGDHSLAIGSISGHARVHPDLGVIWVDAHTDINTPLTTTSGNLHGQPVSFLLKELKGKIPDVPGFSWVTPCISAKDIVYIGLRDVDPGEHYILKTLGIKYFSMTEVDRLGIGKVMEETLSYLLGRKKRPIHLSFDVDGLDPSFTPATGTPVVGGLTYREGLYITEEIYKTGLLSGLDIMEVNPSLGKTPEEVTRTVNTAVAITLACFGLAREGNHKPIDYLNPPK

[1] = Inhibition of human recombinant arginase 2 H331 to I354 deletion mutant expressed in Escherichia coli BL21 (DE3) assessed as reduction in urea production using L-arginine as substrate in presence of MnSO4 incubated for 60 mins by colorimetric assay
[2] = biological target: T2, Arginase-1 (Homo sapiens) (UniProt P05089); assay: Potency index, ratio of ABH IC50 to test compound IC50 for human recombinant arginase 1 expressed in Escherichia coli BL21 (DE3)
T2 sequence (whole entry): T1 sequence (P05089 whole entry)

Compound | Ratio IC50 (Homo sapiens) | IC50 (Arginase-1; read-out: IC50) [nM] | IC50 ([1]; read-out: IC50) [nM] | IC50 (Arginase-1) | IC50 [1] | Ratio IC50 [2]
N[C@H](CN1C[C@H](CCCB(O)O)[C@](N)(C(=O)O)C1)c1ccccc1 | 3 to 5 | 2.5 | 9.5 |  |  | 
N[C@@]1(C(=O)O)CN(Cc2ccncc2)C[C@@H]1CCCB(O)O | 3 to 5 | 600 | 1860 |  |  | 
N[C@H](Cc1ccccc1)CN1C[C@H](CCCB(O)O)[C@](N)(C(=O)O)C1 | 3 to 5 | 10 | 27 |  |  | 
N[C@@H](CN1C[C@H](CCCB(O)O)[C@](N)(C(=O)O)C1)c1ccccc1 | 3 to 5 | 18 | 62 |  |  | 
N[C@@]1(C(=O)O)CN(C[C@@H]2COCCN2)C[C@@H]1CCCB(O)O | 3 to 5 | 10 | 27 |  |  | 
N=C(NO)NCC[C@H](N)C(=O)O [NOR-NOHA] |  |  | 1260 |  |  | 
N[C@@]1(C(=O)O)CN(Cc2cccc(F)n2)C[C@@H]1CCCB(O)O | 3 to 5 | 670 | 2160 |  |  | 
N[C@@H](Cc1ccccc1)CN1C[C@H](CCCB(O)O)[C@](N)(C(=O)O)C1 | 3 to 5 | 1.3 | 8.1 |  |  | 1190
N[C@@H](CCCCB(O)O)C(=O)O | 3 to 5 | 1550 | 2550 |  |  | 
N[C@@]1(C(=O)O)CN(Cc2ccccc2)C[C@@H]1CCCB(O)O | 3 to 5 | 300 | 1540 |  |  | 
N[C@@]1(C(=O)O)CN(Cc2cccnc2)C[C@@H]1CCCB(O)O | 3 to 5 | 470 | 1370 |  |  | 
Cc1nn(C)c(C)c1CN1C[C@H](CCCB(O)O)[C@](N)(C(=O)O)C1 | 3 to 5 | 340 | 2230 |  |  | 
N[C@@]1(C(=O)O)CN(Cc2ccccn2)C[C@@H]1CCCB(O)O | 3 to 5 | 380 | 1270 |  |  | 
N[C@@]1(C(=O)O)CN(Cc2cncs2)C[C@@H]1CCCB(O)O | 3 to 5 | 360 | 850 |  |  | 

Next, values leading:

Ratio IC50 (Homo sapiens) | IC50 (Arginase-1; read-out: IC50) [nM] | IC50 ([1]; read-out: IC50) [nM] | IC50 (Arginase-1) | IC50 [1] | Ratio IC50 [2] | Compound
3 to 5 | 10 | 37 |  |  |  | N[C@@]1(C(=O)O)CN(C[C@H]2CCCN2)C[C@@H]1CCCB(O)O
 |  |  | Not Active | Not Active |  | N[C@]1(C(=O)O)CCC[C@H]1CCCB(O)O
3 to 5 | 390 | 1610 |  |  |  | CC(C)CN1C[C@H](CCCB(O)O)[C@](N)(C(=O)O)C1
3 to 5 | 100 | 330 |  |  |  | Cn1ccnc1CN1C[C@H](CCCB(O)O)[C@](N)(C(=O)O)C1
 | 380 | 1280 |  |  |  | NC1(C(=O)O)CCCC1CCCB(O)O (racemic; 8) [listing 1 of 2 here]
3 to 5 | 19 | 65 |  |  |  | N[C@@]1(C(=O)O)CN(C[C@H]2COCCN2)C[C@@H]1CCCB(O)O
3 to 5 | 2.6 | 14 |  |  |  | N[C@@]1(C(=O)O)CN(C[C@H]2CCCCN2)C[C@@H]1CCCB(O)O
 | 48000 | 79200 |  |  |  | NC1(C(=O)O)CCCC1CCCB(O)O (racemic; 9)
3 to 5 | 30 | 95 |  |  |  | N[C@@]1(C(=O)O)CN(C[C@@H]2CCCCN2)C[C@@H]1CCCB(O)O
3 to 5 |  |  |  |  |  | NC1(C(=O)O)CCCC1CCCB(O)O (racemic; 8) [listing 2 of 2 here]
3 to 5 | 400 | 2180 |  |  |  | Cc1[nH]ncc1CN1C[C@H](CCCB(O)O)[C@](N)(C(=O)O)C1
3 to 5 | 210 | 630 |  |  |  | N[C@@]1(C(=O)O)CCC[C@@H]1CCCB(O)O
3 to 5 | 110 | 440 |  |  |  | N[C@@]1(C(=O)O)CNC[C@@H]1CCCB(O)O
3 to 5 | 11 | 47 |  |  |  | N[C@@]1(C(=O)O)CN(C[C@@H]2CCCN2)C[C@@H]1CCCB(O)O
3 to 5 | 16 | 37 |  |  |  | C[C@@H](N)CN1C[C@H](CCCB(O)O)[C@](N)(C(=O)O)C1
2 to 5 | 7.7 | 16 |  |  |  | C[C@H](N)CN1C[C@H](CCCB(O)O)[C@](N)(C(=O)O)C1
